Experimental data as given in the kinase profiling compilation of Christmann-Franck et al. (2016).

Key:
Assay in all cases: KINOMEscan competition binding
Conditions in all cases: compound 10.0 µM
BMPR2 (human) = BMPR2 (human) (UniProt Q13873)
CDK7 (human) = CDK7 (human) (UniProt P50613)
CDKL5 (human) = CDKL5 (human) (UniProt O76039)
CLK1 (human) = CLK1 (human) (UniProt P49759)
CSNK1E (human) = CSNK1E (human) (UniProt P49674)
DAPK2 (human) = DAPK2 (human) (UniProt Q9UIK4)
EPHA3 (human) = EPHA3 (human) (UniProt P29320)
EPHA5 (human) = EPHA5 (human) (UniProt P54756)
EPHB6 (human) = EPHB6 (human) (UniProt O15197)
ERN1 (human) = ERN1 (human) (UniProt O75460)
FGR (human) = FGR (human) (UniProt P09769)
FLT3 (human) = FLT3 (human) (UniProt P36888)
GRK7 (human) = GRK7 (human) (UniProt Q8WTQ7)
GSK3B (human) = GSK3B (human) (UniProt P49841)
HCK (human) = HCK (human) (UniProt P08631)
INSR (human) = INSR (human) (UniProt P06213)
ITK (human) = ITK (human) (UniProt Q08881)
[1] = molecular target: JAK1 JH2 pseudokinase (human) (UniProt P23458)
LATS1 (human) = LATS1 (human) (UniProt O95835)
LIMK2 (human) = LIMK2 (human) (UniProt P53671)
MAP3K13 (human) = MAP3K13 (human) (UniProt O43283)
MAPK12 (human) = MAPK12 (human) (UniProt P53778)
[2] = system: MET (human), P08581 [Y1235D]
MST4 (human) = MST4 (human) (UniProt Q9P289)
MYO3A (human) = MYO3A (human) (UniProt Q8NEV4)
NEK7 (human) = NEK7 (human) (UniProt Q8TDX7)
NUAK2 (human) = NUAK2 (human) (UniProt Q9H093)
PAK2 (human) = PAK2 (human) (UniProt Q13177)
PIK3C2G (human) = PIK3C2G (human) (UniProt O75747)
PIM1 (human) = PIM1 (human) (UniProt P11309)
PRKACA (human) = PRKACA (human) (UniProt P17612)
PRKD2 (human) = PRKD2 (human) (UniProt Q9BZL6)
RIOK2 (human) = RIOK2 (human) (UniProt Q9BVS4)
SNRK (human) = SNRK (human) (UniProt Q9NRH2)
TLK2 (human) = TLK2 (human) (UniProt Q86UE8)
TNIK (human) = TNIK (human) (UniProt Q9UKE5)
TYRO3 (human) = TYRO3 (human) (UniProt Q06418)
CSNK1G2 (human) = CSNK1G2 (human) (UniProt P78368)
[3] = system: PIK3CA (human), P42336 [C420R]
[4] = system: PIK3CA (human), P42336 [E542K]
PRKG2 (human) = PRKG2 (human) (UniProt Q13237)

Sequence of PIK3C2G (human) (O75747 whole entry, looked up): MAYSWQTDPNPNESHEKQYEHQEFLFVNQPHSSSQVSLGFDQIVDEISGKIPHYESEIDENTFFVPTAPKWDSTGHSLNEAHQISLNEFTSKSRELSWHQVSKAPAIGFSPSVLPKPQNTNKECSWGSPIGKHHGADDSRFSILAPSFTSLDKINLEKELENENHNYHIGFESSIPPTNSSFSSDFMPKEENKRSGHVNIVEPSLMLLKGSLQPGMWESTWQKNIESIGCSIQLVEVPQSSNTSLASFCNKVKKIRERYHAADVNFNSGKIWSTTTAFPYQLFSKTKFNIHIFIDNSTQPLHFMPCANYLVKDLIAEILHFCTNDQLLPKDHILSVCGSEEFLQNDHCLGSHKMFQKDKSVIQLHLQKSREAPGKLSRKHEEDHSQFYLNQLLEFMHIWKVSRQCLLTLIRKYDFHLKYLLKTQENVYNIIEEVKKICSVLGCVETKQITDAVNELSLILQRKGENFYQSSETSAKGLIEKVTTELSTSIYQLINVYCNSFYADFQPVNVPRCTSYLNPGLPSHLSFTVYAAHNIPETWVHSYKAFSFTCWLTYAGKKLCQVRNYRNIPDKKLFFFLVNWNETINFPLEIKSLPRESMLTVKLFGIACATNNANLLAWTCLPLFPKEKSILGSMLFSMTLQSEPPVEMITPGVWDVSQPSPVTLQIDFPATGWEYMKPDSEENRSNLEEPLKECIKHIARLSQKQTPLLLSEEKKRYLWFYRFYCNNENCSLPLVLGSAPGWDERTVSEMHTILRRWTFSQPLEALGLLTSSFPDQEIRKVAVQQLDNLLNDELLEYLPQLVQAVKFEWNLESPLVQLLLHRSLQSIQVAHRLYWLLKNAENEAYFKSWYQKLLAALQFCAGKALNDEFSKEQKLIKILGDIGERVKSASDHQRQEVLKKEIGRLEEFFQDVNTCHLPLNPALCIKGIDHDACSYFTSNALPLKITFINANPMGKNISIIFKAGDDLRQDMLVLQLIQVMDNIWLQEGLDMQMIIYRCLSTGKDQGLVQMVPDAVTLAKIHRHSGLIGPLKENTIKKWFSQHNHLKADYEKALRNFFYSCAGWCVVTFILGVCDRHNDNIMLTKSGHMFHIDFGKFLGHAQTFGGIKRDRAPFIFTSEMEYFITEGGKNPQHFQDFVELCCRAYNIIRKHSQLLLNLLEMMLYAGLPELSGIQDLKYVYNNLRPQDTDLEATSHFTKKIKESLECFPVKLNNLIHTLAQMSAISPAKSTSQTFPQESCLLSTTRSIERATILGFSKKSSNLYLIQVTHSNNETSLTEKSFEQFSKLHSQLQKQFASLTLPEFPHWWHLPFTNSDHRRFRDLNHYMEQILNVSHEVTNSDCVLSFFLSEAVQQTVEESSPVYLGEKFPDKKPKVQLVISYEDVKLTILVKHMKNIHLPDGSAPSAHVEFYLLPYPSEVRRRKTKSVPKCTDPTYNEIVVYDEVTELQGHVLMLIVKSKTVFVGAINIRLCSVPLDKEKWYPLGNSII
Sequence of PRKD2 (human) (Q9BZL6 whole entry, looked up): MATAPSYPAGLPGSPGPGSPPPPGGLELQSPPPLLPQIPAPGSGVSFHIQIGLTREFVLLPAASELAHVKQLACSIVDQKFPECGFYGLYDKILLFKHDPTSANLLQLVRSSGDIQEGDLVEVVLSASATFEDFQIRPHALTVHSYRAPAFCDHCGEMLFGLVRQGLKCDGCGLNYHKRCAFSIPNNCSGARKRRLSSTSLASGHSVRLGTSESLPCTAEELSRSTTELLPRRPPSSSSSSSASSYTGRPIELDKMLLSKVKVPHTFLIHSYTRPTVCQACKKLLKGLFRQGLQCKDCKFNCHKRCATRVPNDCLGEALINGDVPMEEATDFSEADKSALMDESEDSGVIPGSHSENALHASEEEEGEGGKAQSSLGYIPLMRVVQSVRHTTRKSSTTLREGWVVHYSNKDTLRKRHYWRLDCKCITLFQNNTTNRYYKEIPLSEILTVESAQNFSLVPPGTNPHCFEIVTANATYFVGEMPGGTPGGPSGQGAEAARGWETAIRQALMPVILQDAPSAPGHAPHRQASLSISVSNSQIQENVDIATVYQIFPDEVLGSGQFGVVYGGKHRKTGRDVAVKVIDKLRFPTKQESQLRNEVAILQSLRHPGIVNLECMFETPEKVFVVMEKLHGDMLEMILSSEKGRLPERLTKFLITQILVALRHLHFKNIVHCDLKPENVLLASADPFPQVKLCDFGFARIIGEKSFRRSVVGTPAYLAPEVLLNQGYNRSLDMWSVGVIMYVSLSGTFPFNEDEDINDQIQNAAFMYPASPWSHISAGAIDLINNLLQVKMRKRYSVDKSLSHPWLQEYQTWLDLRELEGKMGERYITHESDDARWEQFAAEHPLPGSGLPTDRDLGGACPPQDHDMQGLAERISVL
Sequence of MAP3K13 (human) (O43283 whole entry, looked up): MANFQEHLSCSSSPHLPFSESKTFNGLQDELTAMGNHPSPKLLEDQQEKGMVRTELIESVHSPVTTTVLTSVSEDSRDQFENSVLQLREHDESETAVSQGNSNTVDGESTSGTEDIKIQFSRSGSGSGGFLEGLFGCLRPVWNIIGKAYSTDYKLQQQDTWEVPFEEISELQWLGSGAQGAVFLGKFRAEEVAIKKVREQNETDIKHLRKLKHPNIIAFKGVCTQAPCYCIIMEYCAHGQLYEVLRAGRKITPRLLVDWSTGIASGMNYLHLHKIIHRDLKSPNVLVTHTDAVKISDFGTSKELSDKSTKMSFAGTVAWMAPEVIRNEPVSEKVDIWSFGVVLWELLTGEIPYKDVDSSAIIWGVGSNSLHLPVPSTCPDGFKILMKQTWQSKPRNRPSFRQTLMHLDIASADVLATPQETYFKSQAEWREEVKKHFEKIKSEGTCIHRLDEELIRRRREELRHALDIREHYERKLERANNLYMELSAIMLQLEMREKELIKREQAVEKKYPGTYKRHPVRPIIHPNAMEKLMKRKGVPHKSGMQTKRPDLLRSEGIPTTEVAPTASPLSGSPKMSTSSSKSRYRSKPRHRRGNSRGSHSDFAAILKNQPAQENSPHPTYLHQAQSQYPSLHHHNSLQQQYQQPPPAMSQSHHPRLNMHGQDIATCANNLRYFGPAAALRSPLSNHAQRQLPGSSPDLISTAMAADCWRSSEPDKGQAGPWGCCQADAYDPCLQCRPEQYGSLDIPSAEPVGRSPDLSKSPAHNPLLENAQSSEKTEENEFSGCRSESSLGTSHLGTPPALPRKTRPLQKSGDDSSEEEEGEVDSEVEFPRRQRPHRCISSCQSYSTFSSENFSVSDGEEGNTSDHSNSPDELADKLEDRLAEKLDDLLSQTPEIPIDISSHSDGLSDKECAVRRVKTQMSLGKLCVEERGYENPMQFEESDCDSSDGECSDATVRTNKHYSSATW
Sequence of INSR (human) (P06213 whole entry, looked up): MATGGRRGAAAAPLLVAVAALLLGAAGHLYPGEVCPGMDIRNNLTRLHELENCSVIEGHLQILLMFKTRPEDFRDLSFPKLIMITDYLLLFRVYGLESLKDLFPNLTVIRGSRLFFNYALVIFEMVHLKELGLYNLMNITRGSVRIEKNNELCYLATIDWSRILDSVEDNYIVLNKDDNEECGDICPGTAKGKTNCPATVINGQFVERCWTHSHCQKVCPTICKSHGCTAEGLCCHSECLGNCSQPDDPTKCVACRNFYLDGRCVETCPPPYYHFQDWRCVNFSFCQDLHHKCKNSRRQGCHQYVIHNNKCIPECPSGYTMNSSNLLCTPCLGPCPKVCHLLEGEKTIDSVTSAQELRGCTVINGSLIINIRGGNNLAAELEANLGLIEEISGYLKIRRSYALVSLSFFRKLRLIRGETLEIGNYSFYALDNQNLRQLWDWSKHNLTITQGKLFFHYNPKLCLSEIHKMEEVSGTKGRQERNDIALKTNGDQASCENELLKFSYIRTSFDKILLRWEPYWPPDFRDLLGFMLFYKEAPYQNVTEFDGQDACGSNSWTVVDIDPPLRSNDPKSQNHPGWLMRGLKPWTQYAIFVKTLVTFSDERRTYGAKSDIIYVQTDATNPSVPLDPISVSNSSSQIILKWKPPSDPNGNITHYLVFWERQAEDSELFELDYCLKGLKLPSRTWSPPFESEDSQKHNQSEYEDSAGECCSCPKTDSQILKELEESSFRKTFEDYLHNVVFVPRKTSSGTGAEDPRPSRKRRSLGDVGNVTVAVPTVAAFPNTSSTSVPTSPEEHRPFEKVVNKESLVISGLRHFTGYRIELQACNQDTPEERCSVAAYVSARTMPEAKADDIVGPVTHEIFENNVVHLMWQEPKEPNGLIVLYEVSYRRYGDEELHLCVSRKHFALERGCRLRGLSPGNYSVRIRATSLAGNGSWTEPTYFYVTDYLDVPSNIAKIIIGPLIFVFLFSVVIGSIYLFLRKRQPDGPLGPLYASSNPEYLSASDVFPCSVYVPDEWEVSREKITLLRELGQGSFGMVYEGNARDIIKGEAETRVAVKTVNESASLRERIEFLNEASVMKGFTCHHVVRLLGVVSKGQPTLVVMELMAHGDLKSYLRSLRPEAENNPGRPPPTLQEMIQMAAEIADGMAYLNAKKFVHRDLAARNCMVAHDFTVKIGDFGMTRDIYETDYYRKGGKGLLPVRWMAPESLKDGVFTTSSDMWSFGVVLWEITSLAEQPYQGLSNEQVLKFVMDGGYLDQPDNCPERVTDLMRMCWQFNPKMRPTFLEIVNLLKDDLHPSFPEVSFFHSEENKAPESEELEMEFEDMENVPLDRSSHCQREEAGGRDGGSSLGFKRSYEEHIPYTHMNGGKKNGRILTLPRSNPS
Sequence of MST4 (human) (Q9P289 whole entry, looked up): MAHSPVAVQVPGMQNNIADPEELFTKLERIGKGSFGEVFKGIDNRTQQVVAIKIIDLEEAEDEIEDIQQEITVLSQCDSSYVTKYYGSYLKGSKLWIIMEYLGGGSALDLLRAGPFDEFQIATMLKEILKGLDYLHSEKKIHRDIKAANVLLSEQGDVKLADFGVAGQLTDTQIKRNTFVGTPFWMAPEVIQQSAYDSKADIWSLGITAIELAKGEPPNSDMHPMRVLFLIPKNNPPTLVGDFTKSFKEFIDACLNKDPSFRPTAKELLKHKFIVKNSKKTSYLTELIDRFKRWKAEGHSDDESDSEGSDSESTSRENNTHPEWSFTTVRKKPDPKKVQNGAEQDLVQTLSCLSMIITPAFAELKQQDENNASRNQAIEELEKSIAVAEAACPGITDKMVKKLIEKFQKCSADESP

`CC(C)n1nc(-c2cc3cc(O)ccc3[nH]2)c2c(N)ncnc21` was tested, and the kinase still bound, per cent of control (BMPR2 (human)) was 0.1%, the per cent of control (CDK7 (human)) was 30% and the per cent of control (CDKL5 (human)) was 100%. It also gave a kinase still bound, per cent of control (CLK1 (human)) of 14%, a kinase still bound, per cent of control (CSNK1E (human)) of 0.1% and a kinase still bound, per cent of control (DAPK2 (human)) of 3.8%. The kinase still bound, per cent of control (EPHA3 (human)) was 1.5%, the kinase still bound, per cent of control (EPHA5 (human)) was 55% and the kinase still bound, per cent of control (EPHB6 (human)) was 5.3%. For the same compound, the kinase still bound, per cent of control (ERN1 (human)) was 31%, the kinase still bound, per cent of control (FGR (human)) was 5.6% and the kinase still bound, per cent of control (FLT3 (human)) was 40%. It also gave a kinase still bound, per cent of control (GRK7 (human)) of 2.9%, a kinase still bound, per cent of control (GSK3B (human)) of 91% and a kinase still bound, per cent of control (HCK (human)) of 2.5%. It also gave a kinase still bound, per cent of control (INSR (human)) of 100%, a kinase still bound, per cent of control (ITK (human)) of 100% and a kinase still bound, per cent of control [1] of 0.2%. The kinase still bound, per cent of control (LATS1 (human)) was 55%, the kinase still bound, per cent of control (LIMK2 (human)) was 77% and the kinase still bound, per cent of control (MAP3K13 (human)) was 100%. For the same compound, the kinase still bound, per cent of control (MAPK12 (human)) was 59%, the kinase still bound, per cent of control [2] was 88% and the kinase still bound, per cent of control (MST4 (human)) was 31%. The kinase still bound, per cent of control (MYO3A (human)) was 12%, the kinase still bound, per cent of control (NEK7 (human)) was 100% and the kinase still bound, per cent of control (NUAK2 (human)) was 9.2%. For the same compound, the kinase still bound, per cent of control (PAK2 (human)) was 31%, the kinase still bound, per cent of control (PIK3C2G (human)) was 3.4% and the kinase still bound, per cent of control (PIM1 (human)) was 26%. The per cent of control (PRKACA (human)) was 47%, the kinase still bound, per cent of control (PRKD2 (human)) was 100% and the kinase still bound, per cent of control (RIOK2 (human)) was 38%. For the same compound, the kinase still bound, per cent of control (SNRK (human)) was 100%, the kinase still bound, per cent of control (TLK2 (human)) was 79% and the kinase still bound, per cent of control (TNIK (human)) was 2.4%. The kinase still bound, per cent of control (TYRO3 (human)) was 77%.

With `COC(=O)Nc1ccc(-c2nc(N3CCOCC3)c3cnn(C4CCN(C(=O)OC)CC4)c3n2)cc1` the kinase still bound, per cent of control (BMPR2 (human)) was 92%, the per cent of control (CDK7 (human)) was 67% and the per cent of control (CDKL5 (human)) was 100%. It also gave a kinase still bound, per cent of control (CLK1 (human)) of 100%, a kinase still bound, per cent of control (CSNK1E (human)) of 72% and a kinase still bound, per cent of control (CSNK1G2 (human)) of 98%. For the same compound, the kinase still bound, per cent of control (DAPK2 (human)) was 96%, the kinase still bound, per cent of control (EPHA3 (human)) was 84% and the kinase still bound, per cent of control (EPHA5 (human)) was 100%. It also gave a kinase still bound, per cent of control (EPHB6 (human)) of 97%, a kinase still bound, per cent of control (ERN1 (human)) of 100% and a kinase still bound, per cent of control (FGR (human)) of 96%. The kinase still bound, per cent of control (FLT3 (human)) was 100%, the kinase still bound, per cent of control (GRK7 (human)) was 100% and the kinase still bound, per cent of control (GSK3B (human)) was 100%. It also gave a kinase still bound, per cent of control (HCK (human)) of 100%, a kinase still bound, per cent of control (INSR (human)) of 72% and a kinase still bound, per cent of control (ITK (human)) of 91%. For the same compound, the kinase still bound, per cent of control [1] was 74%, the kinase still bound, per cent of control (LATS1 (human)) was 100% and the kinase still bound, per cent of control (LIMK2 (human)) was 94%. The kinase still bound, per cent of control (MAP3K13 (human)) was 100%, the kinase still bound, per cent of control (MAPK12 (human)) was 0% and the kinase still bound, per cent of control (MST4 (human)) was 80%. The kinase still bound, per cent of control (MYO3A (human)) was 100%, the kinase still bound, per cent of control (NEK7 (human)) was 77% and the kinase still bound, per cent of control (NUAK2 (human)) was 84%. For the same compound, the kinase still bound, per cent of control (PAK2 (human)) was 91%, the kinase still bound, per cent of control (PIK3C2G (human)) was 24% and the kinase still bound, per cent of control [3] was 3%. The kinase still bound, per cent of control [4] was 5.2%, the kinase still bound, per cent of control (PIM1 (human)) was 100% and the per cent of control (PRKACA (human)) was 100%. The kinase still bound, per cent of control (PRKD2 (human)) was 100%, the kinase still bound, per cent of control (PRKG2 (human)) was 86% and the kinase still bound, per cent of control (RIOK2 (human)) was 79%. For the same compound, the kinase still bound, per cent of control (SNRK (human)) was 100%, the kinase still bound, per cent of control (TLK2 (human)) was 96% and the kinase still bound, per cent of control (TNIK (human)) was 95%. For the same compound, the kinase still bound, per cent of control (TYRO3 (human)) was 100%.
